Results from EP3692101B1, “BRILLIANT BLUE (BBG) DYE DERIVATIVES AND STAINING COMPOSITIONS COMPRISING THE SAME FOR SELECTIVELY STAINING BIOLOGICAL SUBSTRATES” (priority 2017, dated 2019).

Columns and labels:
retina = test: Ex-vivo staining of porcine eyes, dye extraction and HPLC quantification in retina near the peeled area; details: ex-vivo swine eyes; for increase in the dyes content in the retina with respect to the staining formulation according to the invention: p=0.004
Procedure: (§1) To this end, a staining composition according to the invention was prepared having the following formulation (% by weight). • dye: Benzyl-BBG according to Example 4: 0.025% • Sodium phosphate monobasic dihydrate: 0.368% (SIGMA ALDRICH) • Sodium phosphate bibasic dihydrate: 0.711% (SIGMA ALDRICH) • Sodium chloride: 0.400% (SIGMA ALDRICH) • water for injectables: up to 100% (FRESENIUS KABI ITALIA S.R.L.).
(§2) This staining composition was compared with two staining composition available on the market, more specifically: • a staining composition including BBG and marketed under the trade name of ILM-BLUE® (D.O.R.C. Dutch Ophthalmic Research Center (International) B.V.), and with • a staining composition including methyl-BBG according to WO 2016/189475 marketed under the trade name of VIEW-ILM (AL.CHI.MI.A. S.r.l.).
(§3) Porcine eyes were obtained from a slaughterhouse and were prepared within 5 hours after death, the eyes were placed on a plastic holder, and a 360-degree limbal incision was performed for corneal removal, followed by total iris removal. Whole vitreous was gently extracted.
Next, 1 ml of BSS was placed in the eye and 40 µl of dye formulation was gently placed in the eye, by a Gilson pipet, for 30 seconds; then the BSS along the dye were removed and the eye rinsed with BSS. […]
Retina and ILM tissue samples obtained as described above were weighed and homogenized in 250-500 µl of methanol. […] The residues were reconstituted in 100 µl of mobile phase by vortexing for 120 s, filtered again on 0.45 µm filters and, finally, 20 µl aliquots were injected onto the chromatographic apparatus (each sample was analyzed in triplicate). […]
(§4) Quantification of the dye molecule was performed using 6-10 points external regression curves performed at 613 nm. […]
(§5) In the data analysis, statistical differences of ex-vivo data are determined using analysis of variance (ANOVA) followed by the Bonferroni-Dunn post hoc pairwise comparison procedure. […]

ILM = test: Ex-vivo staining of porcine eyes, dye extraction and HPLC quantification in peeled ILM; details: ex-vivo swine eyes; for amounts of the dye molecule in the ILM (mean): 40 µl dye formulation in 1 ml BSS for 30 seconds, mean of 6, BBG 0.025% (ILM-BLUE), methyl-BBG 0.03% (VIEW-ILM), Benzyl-BBG 0.025%
Procedure: as §1, §2, §3
Next, 1 ml of BSS was placed in the eye and 40 µl of dye formulation was gently placed in the eye, by a Gilson pipet, for 30 seconds; then the BSS along the dye were removed and the eye rinsed with BSS.
The peeling of ILM was carried out by forceps and the tissue placed in an Eppendorf tube, the rest of retina near the area of ILM peeling was collected and placed in another Eppendorf tube.
The average amount of ILM tissue was of about 2 mg, whereas the average amount of retina tissue was of about 20 mg.
All tissues (ILM and retina) were stored at -20°C before HPLC analysis.
Retina and ILM tissue samples obtained as described above were weighed and homogenized in 250-500 µl of methanol. The homogenates were then transferred in an Eppendorf tube, ultrasonically extracted using a Branson Sonifier, centrifuged at 1,000 x g for 10 min and filtered on 0.45 µm syringe filters. The filtrates were transferred into labeled, clean test tubes and evaporated to dryness under a stream of nitrogen. The residues were reconstituted in 100 µl of mobile phase by vortexing for 120 s, filtered again on 0.45 µm filters and, finally, 20 µl aliquots were injected onto the chromatographic apparatus (each sample was analyzed in triplicate). […]
as §4, §5

[1] = test system: proteins and protein chains; test: SDS-PAGE protein staining, whole set of molecular weight standards (spots versus background); details: result in words; dye 0.05% by weight/volume
Procedure: The dye molecules according to the invention were tested in order to show their higher selectivity for proteins and protein chains with respect to BBG. For this purpose, SDS-PAGE electrophoresis tests were performed in order to compare the Benzyl-BBG according to the invention (Example 4) and the Ethyl-BBG according to Example 2 with a commercially available grade of BBG (Sigma-Aldrich 90% purity).
A set of molecular weight standards was created by mixing different amounts of known proteins (E.coli beta-galactosidase - 116.3 kDa, bovine serum albumin - 66.5 kDa, chicken ovalbumin - 42.7 kDa and equine cytochrome C - 12,384 Da) in such a way as to obtain bands of similar intensity. In order to do so, an inverse relationship between amount (as nanograms of protein) and molecular weight of any protein was initially achieved, and small adjustments were experimentally made. Polyacrylamide gel electrophoresis was done in 9% precast gels (Bio-Rad) at 20V for 60-90 minutes in denaturing conditions; standards were loaded in triplicate on separate lanes. […]

[2] = cited from earlier work

## CCOc1ccc(Nc2ccc(C(=C3C=CC(=[N+](CC)Cc4cccc(S(=O)(=O)[O-])c4)C=C3C)c3ccc(N(CC)Cc4cccc(S(=O)(=O)O)c4)cc3C)cc2)cc1 [BBG, Coomassie Brilliant Blue G-250]
retina
  increase in the dyes content in the retina with respect to the staining formulation according to the invention: 20.1 fold

## CCOc1ccc(N(Cc2ccccc2)c2ccc(C(=C3C=CC(=[N+](CC)Cc4cccc(S(=O)(=O)[O-])c4)C=C3C)c3ccc(N(CC)Cc4cccc(S(=O)(=O)O)c4)cc3C)cc2)cc1 [Benzyl-BBG]
retina; 40 µl dye formulation in 1 ml BSS for 30 seconds, mean of 6, BBG 0.025% (ILM-BLUE), methyl-BBG 0.03% (VIEW-ILM), Benzyl-BBG 0.025%
  amounts of the dye molecule in the retina (mean): 19.69 ng/mg tissue
ILM
  amounts of the dye molecule in the ILM (mean): 214.88 ng/mg tissue
ILM; listed as benzyl-BBG
  amounts of the dye molecule in the ILM (mean): about 215 ng/mg tissue
ILM; p = 0,002
  increase of dye content in ILM with respect to the known formulation including BBG: 2.9 fold
ILM; p<0,001
  increase of dye content in ILM with respect to the known formulation including methyl-BBG: 6.0 fold
[1]
  difference between the spot intensity of Benzyl-BBG and Ethyl-BBG: No significant difference

## c1ccc(CNCc2ccccc2)cc1 [dibenzylamine]
[2]
  pKa: 8.52

## CCOc1ccc(N(C)c2ccc(C(=C3C=CC(=[N+](CC)Cc4cccc(S(=O)(=O)[O-])c4)C=C3C)c3ccc(N(CC)Cc4cccc(S(=O)(=O)O)c4)cc3C)cc2)cc1 [methyl-BBG]
retina
  increase in the dyes content in the retina with respect to the staining formulation according to the invention: 10.9 fold
